According to patent US20140011867A1, “EFFECT OF BORRELIDIN FOR CONTROLLING SOYBEAN PHYTOPHTHORA ROOT ROT” (ZHEJIANG HISUN PHARMACEUTICAL CO., LTD., priority 2011, published 2014):
≈ marks a conversion by molar mass, not a printed value. Like-named read-outs stand apart in the source and are kept apart here.

System: Phytophthora sajae Kaufmann & Gerdeman
Test: Mycelial growth inhibition assay (growth rate method)
Type: cell-based
Set-up: IC50 as fraction of that of metalaxyl: unit not given beside the values
Method: Growth rate method was used in the assays. […] Phytophthora sajae Kaufmann & Gerdeman cultures after 7 days of culture were punched using a sterile punch (Ø0.5cm) and put on standby, and the cultures were later transferred onto […] (CA) plate culture media and placed at a temperature of 27±1° C., and colony diameters were measured after 7 days of culture.

[1] = mycelial growth, CA plate, 27±1° C., colony diameter after 7 days
[2] = mycelial growth inhibition assay

| Molecule | IC50 (Phytophthora, 168 h, mycelial growth, CA plate, 27±1° C., colony diameter after 7 days, read-out: IC50) | IC95 [1] | IC50 as fraction of that of metalaxyl [2] | IC95 as fraction of that of metalaxyl [2] | IC50 (mycelial growth inhibition assay, unit inferred) | IC95 (mycelial growth inhibition assay, unit not given) |
| --- | --- | --- | --- | --- | --- | --- |
| COCC(=O)N(c1c(C)cccc1C)C(C)C(=O)OC (stereo not shown) [Metalaxyl, reference compound] | 0.35 µg/mL (≈ 1.25 µM) | 6.85 µg/mL (≈ 24.5 µM) | – | – | – | – |
| Borrelidin | – | 0.026 µg/mL | 1/62 | 1/263 | 0.0056 µg/mL | 0.026 |
